Laboratory results published in US9546401B2, “Assays and methods for selecting a treatment regimen for a subject with depression” (The General Hospital Corporation, priority 2011, dated 2017).
Where two headings read alike, the source gives them in different places.

System: MDD patients carrying the indicated biomarkers
Protocol: Folate levels are classified as either low (<=2.5 ng/ml) or normal; and homocysteine levels as either normal or elevated (>=[…]). The presence or absence of at least one […] allele for the MTHFR gene are entered as a dichotomous variable (present or absent). […] Using folate as an example predicator, the presence or absence of a low serum-folate level along with treatment assignment can be entered in a 2×2, factorial ANOVA, using depression improvement scores (baseline minus endpoint HAM-D-17 scores) as the dependant variable. […] Similar analyses (i.e. separate 2×2 ANOVA's) can be performed substituting the presence of low folate levels for the presence of other predictors as described herein. Similarly, the effect of other predictors can be indicated by the interaction term representing the potential modulating influence of those variables.
The efficacy effect is determined by measuring the mean change in the HAMD-17 score and HAMD-28 score by the end of Phase I and Phase II, as compared to the baseline.

[1] = Phase II, BMI < 30 kg/m^2 and HNE-His < median
[2] = Phase II, BMI < 30 kg/m^2 and SAM/SAH >= median
[3] = Phase II, BMI >= 30 kg/m^2 and HNE-His >= median
[4] = Phase II, BMI*treat (interaction of BMI with the treatment)
[5] = Phase II, MTHFR 677 CC and BMI < 30 kg/m^2
[6] = Phase II, MTHFR 677 CT or TT and BMI >= 30 kg/m^2
[7] = Phase II, MTHFR 677 CT or TT and HNE-His >= median
[8] = Phase II, MTR 2756 AA and BMI < 30 kg/m^2
[9] = Phase II, MTR 2756 AA and HNE-His < median
[10] = Phase II, MTR 2756 AA and MTRR 66 AA
[11] = Phase II, MTR 2756 AA and MTRR 66 AA and SAM/SAH >= median
[12] = Phase II, MTR 2756 AA and SAM/SAH >= median
[13] = Phase II, MTR 2756 AG or GG and BMI >= 30 kg/m^2
[14] = Phase II, MTR 2756 AG or GG and MTRR 66 AG or GG
[15] = Phase II, MTR 2756 AG or GG and MTRR 66 AG or GG and HNE-His >= median
[16] = Phase II, MTRR 66 AA and SAM/SAH >= median
[17] = Phase II, MTRR 66 AG or GG and HNE-His >= median
[18] = Phase II, SAM/SAH < median and HNE-His >= median
[19] = Phase II, SAM/SAH >= median and HNE-His < median
[20] = Pooled phases, 25 =< BMI < 30 kg/m^2

Question: For CN1c2c(nc(N)[nH]c2=O)NC[C@@H]1CNc1ccc(C(=O)N[C@@H](CCC(=O)O)C(=O)O)cc1 [6(S)-5-MTHF, 6(S)-5-methyltetrahydrofolate], which “Effect on change in HAMD-28 score” value (Phase II, BMI < 25) is on record?
Answer: Its value is −2.300.

Question: What about the “Effect on change in HAMD-17 score” value [1] of the same compound?
Answer: The value was 3.667.

Question: What about the “Effect on change in HAMD-28 score” value [1] of the same compound?
Answer: Its value is 1.833.

Question: And the “Effect on change in HAMD-17 score” value [2]?
Answer: The value was 1.500.

Question: And the “Effect on change in HAMD-28 score” value [2]?
Answer: The value was 2.500.

Question: What about the “Effect on change in HAMD-17 score” value (Phase II, BMI >= 30 kg/m^2) of the same compound?
Answer: The value was −3.009.

Question: What about the “Effect on change in HAMD-28 score” value (Phase II, BMI >= 30 kg/m^2) of the same compound?
Answer: The value was −3.245.

Question: What about the “Effect on change in HAMD-17 score” value [3] of the same compound?
Answer: Its value is −4.233.

Question: And the “Effect on change in HAMD-28 score” value [3]?
Answer: Its value is −4.933.

Question: And the “Effect on change in HAMD-17 score” value (Phase II, BMI >= 30 kg/m^2 and SAM/SAH < median)?
Answer: The value was −9.200.

Question: And the “Effect on change in HAMD-28 score” value (Phase II, BMI >= 30 kg/m^2 and SAM/SAH < median = 2.71 (plasma))?
Answer: The value was −10.350.

Question: And the “Effect on change in HAMD-17 score” value [4]?
Answer: The value was 0.113.

Question: What about the “Effect on change in HAMD-28 score” value [4] of the same compound?
Answer: Its value is 0.082.

Question: And the “Effect on change in HAMD-17 score” value [5]?
Answer: Its value is −2.267.

Question: And the “Effect on change in HAMD-28 score” value [5]?
Answer: The value was −3.000.

Question: And the “Effect on change in HAMD-17 score” value (Phase II, MTHFR 677 CC and HNE-His < median)?
Answer: The value was −0.857.

Question: What about the “Effect on change in HAMD-28 score” value (Phase II, MTHFR 677 CC and HNE-His < median = 3.28 (plasma)) of the same compound?
Answer: Its value is −0.536.

Question: What about the “Effect on change in HAMD-17 score” value [6] of the same compound?
Answer: Its value is −7.333.

Question: What about the “Effect on change in HAMD-28 score” value [6] of the same compound?
Answer: The value was −8.667.

Question: What about the “Effect on change in HAMD-17 score” value [7] of the same compound?
Answer: The value was −7.500.

Question: What about the “Effect on change in HAMD-28 score” value [7] of the same compound?
Answer: Its value is −7.500.

Question: And the “Effect on change in HAMD-17 score” value (Phase II, MTR 2756 AA)?
Answer: The value was −0.427.

Question: And the “Effect on change in HAMD-28 score” value (Phase II, MTR 2756 AA)?
Answer: The value was −0.446.

Question: And the “Effect on change in HAMD-17 score” value [8]?
Answer: Its value is 1.167.

Question: And the “Effect on change in HAMD-28 score” value [8]?
Answer: Its value is 0.917.

Question: What about the “Effect on change in HAMD-17 score” value [9] of the same compound?
Answer: The value was 0.300.

Question: What about the “Effect on change in HAMD-28 score” value [9] of the same compound?
Answer: The value was −0.125.

Question: And the “Effect on change in HAMD-17 score” value [10]?
Answer: The value was −8.000.

Question: And the “Effect on change in HAMD-28 score” value [10]?
Answer: The value was −8.000.

Question: What about the “Effect on change in HAMD-17 score” value (Phase II, MTR 2756 AA and MTRR 66 AA and HNE-His < median) of the same compound?
Answer: The value was −8.667.

Question: And the “Effect on change in HAMD-28 score” value (Phase II, MTR 2756 AA and MTRR 66 AA and HNE-His < median = 3.28 (plasma))?
Answer: The value was −9.000.

Question: And the “Effect on change in HAMD-17 score” value [11]?
Answer: The value was −7.000.

Question: What about the “Effect on change in HAMD-28 score” value [11] of the same compound?
Answer: Its value is −7.500.

Question: And the “Effect on change in HAMD-17 score” value [12]?
Answer: Its value is 1.971.

Question: What about the “Effect on change in HAMD-28 score” value [12] of the same compound?
Answer: The value was 2.000.

Question: What about the “Effect on change in HAMD-17 score” value [13] of the same compound?
Answer: Its value is −12.167.

Question: What about the “Effect on change in HAMD-28 score” value [13] of the same compound?
Answer: Its value is −13.000.

Question: What about the “Effect on change in HAMD-17 score” value (Phase II, MTR 2756 AG or GG and HNE-His >= median) of the same compound?
Answer: The value was −8.417.

Question: And the “Effect on change in HAMD-28 score” value (Phase II, MTR 2756 AG or GG and HNE-His >= median = 3.28 (plasma))?
Answer: Its value is −9.500.

Question: And the “Effect on change in HAMD-17 score” value [14]?
Answer: The value was −4.667.

Question: What about the “Effect on change in HAMD-28 score” value [14] of the same compound?
Answer: The value was −6.583.

Question: And the “Effect on change in HAMD-17 score” value [15]?
Answer: The value was −11.000.

Question: What about the “Effect on change in HAMD-28 score” value [15] of the same compound?
Answer: Its value is −12.000.

Question: What about the “Effect on change in HAMD-17 score” value (Phase II, MTR 2756 AG or GG and MTRR 66 AG or GG and SAM/SAH < median) of the same compound?
Answer: The value was −6.500.

Question: And the “Effect on change in HAMD-28 score” value (Phase II, MTR 2756 AG or GG and MTRR 66 AG or GG and SAM/SAH < median = 2.71 (plasma))?
Answer: Its value is −10.500.

Question: And the “Effect on change in HAMD-17 score” value (Phase II, MTR 2756 AG or GG and SAM/SAH < median)?
Answer: Its value is −2.500.

Question: And the “Effect on change in HAMD-28 score” value (Phase II, MTR 2756 AG or GG and SAM/SAH < median = 2.71 (plasma))?
Answer: The value was −7.500.

Question: And the “Effect on change in HAMD-17 score” value (Phase II, MTR 2756 AG/GG)?
Answer: The value was −3.600.

Question: What about the “Effect on change in HAMD-28 score” value (Phase II, MTR 2756 AG/GG) of the same compound?
Answer: Its value is −5.300.

Question: What about the “Effect on change in HAMD-17 score” value (Phase II, MTRR 66 AA and HNE-His < median) of the same compound?
Answer: Its value is −1.667.

Question: And the “Effect on change in HAMD-28 score” value (Phase II, MTRR 66 AA and HNE-His < median = 3.28 (plasma))?
Answer: Its value is −2.000.

Question: And the “Effect on change in HAMD-17 score” value [16]?
Answer: Its value is −3.000.

Question: And the “Effect on change in HAMD-28 score” value [16]?
Answer: The value was −3.333.

Question: And the “Effect on change in HAMD-17 score” value [17]?
Answer: The value was −3.500.

Question: And the “Effect on change in HAMD-28 score” value [17]?
Answer: Its value is −4.071.

Question: What about the “Effect on change in HAMD-17 score” value (Phase II, MTRR 66 AG or GG and SAM/SAH < median) of the same compound?
Answer: Its value is −6.190.

Question: And the “Effect on change in HAMD-28 score” value (Phase II, MTRR 66 AG or GG and SAM/SAH < median = 2.71 (plasma))?
Answer: Its value is −7.381.

Question: What about the “Effect on change in HAMD-17 score” value [18] of the same compound?
Answer: Its value is −9.000.

Question: And the “Effect on change in HAMD-28 score” value [18]?
Answer: The value was −12.000.

Question: And the “Effect on change in HAMD-17 score” value [19]?
Answer: The value was 4.000.

Question: What about the “Effect on change in HAMD-28 score” value [19] of the same compound?
Answer: The value was 4.500.

Question: What about the “Effect on change in HAMD-28 score” value (Phase II, SAM/SAH*treat, first line under HAMD28) of the same compound?
Answer: Its value is 1.483.

Question: What about the “Effect on change in HAMD-17 score” value (Phase II, baseHAMD-17*treat (interaction of base HAMD-17 with the treatment)) of the same compound?
Answer: The value was −0.249.

Question: What about the “Effect on change in HAMD-17 score” value [20] of the same compound?
Answer: The value was 3.331.

Question: And the “Effect on change in HAMD-28 score” value [20]?
Answer: Its value is 2.054.

Question: What about the “Effect on change in HAMD-17 score” value (Pooled phases, BMI < 25) of the same compound?
Answer: The value was −1.248.
